Values of other authors as cited in patent publication US11992479B2, “R-fadrozole for use in the treatment of aldostonerism” (priority 2018, dated 2024).
Structures can show the parent of a compound that is named as a salt.

Key:
basal plasma aldosterone = conditions: twice daily, healthy male subjects; cited from earlier work
plasma aldosterone = conditions: 0.5 and 1.0 mg twice a day, PA patients; cited from earlier work
DOC = conditions: PA patients, cited from earlier work
[1] = phase I study; cited from earlier work

Row | Compound | effect on basal plasma aldosterone levels (basal plasma aldosterone) | effect on serum potassium (basal plasma aldosterone) | decrease of plasma aldosterone (plasma aldosterone) | DOC mean level (DOC; 1.0 mg twice-daily dose) [ng/mL] | increase of DOC (DOC; twice-daily dosing) | elimination half-life [1] | time to peak concentration [1] [h]
1 | N#Cc1ccc(C2CCCc3cncn32)cc1 (racemic) [Fadrozole hydrochloride] | only modestly affect basal plasma aldosterone levels | without significantly elevating serum potassium | – | – | – | – | –
2 | N#Cc1ccc([C@H]2CCc3cncn32)c(F)c1 [LCI699] | – | – | 70-80% | 9.8 | over 700% | approximately 4 hours | 1
